Data as given in patent US20230331731A1, “CRYSTAL FORM OF PYRROLO HETEROCYCLIC DERIVATIVE AND PREPARATION METHOD THEREFOR” (Jiangsu Hengrui Pharmaceuticals Co., Ltd., priority 2020, published 2023).
Each block holds one compound with its values, some of them ahead of it.

How the values were obtained:
[1] = Influencing factor stability study; type: physicochemical; details: for physical and chemical stability (conclusion): high-temperature conditions (40° C. and 60° C.) and high-humidity conditions (75% and 92.5%)
[2] = Long-term/accelerated stability study; type: physicochemical; details: for physical and chemical stability (conclusion): long-term and accelerated stability conditions; for Purity, 1 month / physical and chemical stability (conclusion) / Crystal form: 1 month
Description: 1. The hydrobromide in crystal form α was left to stand under 25° C., 60% RH conditions and 40° C., 75% RH conditions to investigate its stability.
4. The fumarate in crystal form II was subjected to 6-month long-term (25° C., 60% RH) and accelerated (40° C., 75% RH) stability studies.

Color and appearance ([1]; 40° C., open, 7 days): Pale yellow solid | Crystal form ([1]; 40° C., open, 7 days): Did not change | Main peak purity ([1]; 40° C., open, 7 days): 99.46% | Color and appearance ([1]; 40° C., open, 14 days): Pale yellow solid | Crystal form ([1]; 40° C., open, 14 days): Did not change | Main peak purity ([1]; 40° C., open, 14 days): 99.47% | Color and appearance ([1]; 40° C., open, 30 days): Pale yellow solid | Crystal form ([1]; 40° C., open, 30 days): Did not change | Main peak purity ([1]; 40° C., open, 30 days): 99.26% | Color and appearance ([1]; 60° C., open, 7 days): Pale yellow solid | Crystal form ([1]; 60° C., open, 7 days): Did not change | Main peak purity ([1]; 60° C., open, 7 days): 99.45% | Color and appearance ([1]; 60° C., open, 14 days): Pale yellow solid | Crystal form ([1]; 60° C., open, 14 days): Did not change | Main peak purity ([1]; 60° C., open, 14 days): 99.46% | Color and appearance ([1]; 60° C., open, 30 days): Pale yellow solid | Crystal form ([1]; 60° C., open, 30 days): Did not change | Main peak purity ([1]; 60° C., open, 30 days): 99.23% | Color and appearance ([1]; 75% RH, open, 7 days): Pale yellow solid | Crystal form ([1]; 75% RH, open, 7 days): Did not change | Main peak purity ([1]; 75% RH, open, 7 days): 99.52% | Color and appearance ([1]; 75% RH, open, 14 days): Pale yellow solid | Crystal form ([1]; 75% RH, open, 14 days): Did not change | Main peak purity ([1]; 75% RH, open, 14 days): 99.43% | Color and appearance ([1]; 75% RH, open, 30 days): Pale yellow solid | Crystal form ([1]; 75% RH, open, 30 days): Did not change | Main peak purity ([1]; 75% RH, open, 30 days): 99.36% | Color and appearance ([1]; 92.5% RH, open, 7 days): Pale yellow solid | Crystal form ([1]; 92.5% RH, open, 7 days): Did not change | Main peak purity ([1]; 92.5% RH, open, 7 days): 99.47% | Color and appearance ([1]; 92.5% RH, open, 14 days): Pale yellow solid | Crystal form ([1]; 92.5% RH, open, 14 days): Did not change | Main peak purity ([1]; 92.5% RH, open, 14 days): 99.45% | Color and appearance ([1]; 92.5% RH, open, 30 days): Pale yellow solid | Crystal form ([1]; 92.5% RH, open, 30 days): Did not change | Main peak purity ([1]; 92.5% RH, open, 30 days): 99.40% | Color and appearance ([1]; 4500 Lux, open, 7 days): Pale yellow solid | Crystal form ([1]; 4500 Lux, open, 7 days): Did not change | Main peak purity ([1]; 4500 Lux, open, 7 days): 99.43% | Color and appearance ([1]; 4500 Lux, open, 14 days): Pale yellow solid | Crystal form ([1]; 4500 Lux, open, 14 days): Did not change | Main peak purity ([1]; 4500 Lux, open, 14 days): 99.29% | Color and appearance ([1]; 4500 Lux, open, 30 days): Pale yellow solid | Crystal form ([1]; 4500 Lux, open, 30 days): Did not change | Main peak purity ([1]; 4500 Lux, open, 30 days): 99.19% | Color and appearance ([1]; Initial, 0 days): Pale yellow solid | Crystal form ([1]; Initial, 0 days): Crystal form IV | Main peak purity ([1]; Initial, 0 days): 99.47% | Purity, 1 month ([2]; 25° C., 60%RH): 99.40% | Purity, 1 month ([2]; 40° C., 75%RH): 99.34% | Purity, Initial [2]: 99.46% | physical and chemical stability (conclusion) [2]: good physical and chemical stability
Compound: Cn1nccc1Nc1nccc(-c2cc3n(c2)C(=O)N([C@H](CO)c2cccc(Cl)c2)C3)n1.Cn1nccc1Nc1nccc(-c2cc3n(c2)C(=O)N([C@H](CO)c2cccc(Cl)c2)C3)n1.O=C(O)/C=C/C(=O)O [Fumarate in crystal form IV]
physical and chemical stability (conclusion) ([1]; 30 days): relatively good physical and chemical stability

Color and appearance ([1]; 40° C., open, 7 days): Off-white solid | Crystal form ([1]; 40° C., open, 7 days): Did not change | Main peak purity ([1]; 40° C., open, 7 days): 99.42% | Color and appearance ([1]; 40° C., open, 14 days): Off-white solid | Crystal form ([1]; 40° C., open, 14 days): Did not change | Main peak purity ([1]; 40° C., open, 14 days): 99.32% | Color and appearance ([1]; 40° C., open, 30 days): Off-white solid | Crystal form ([1]; 40° C., open, 30 days): Did not change | Main peak purity ([1]; 40° C., open, 30 days): 99.28% | Color and appearance ([1]; 60° C., open, 7 days): Off-white solid | Crystal form ([1]; 60° C., open, 7 days): Did not change | Main peak purity ([1]; 60° C., open, 7 days): 99.38% | Color and appearance ([1]; 60° C., open, 14 days): Off-white solid | Crystal form ([1]; 60° C., open, 14 days): Did not change | Main peak purity ([1]; 60° C., open, 14 days): 98.99% | Color and appearance ([1]; 60° C., open, 30 days): Off-white solid | Crystal form ([1]; 60° C., open, 30 days): Did not change | Main peak purity ([1]; 60° C., open, 30 days): 99.02% | Color and appearance ([1]; 75% RH, open, 7 days): Off-white solid | Crystal form ([1]; 75% RH, open, 7 days): Did not change | Main peak purity ([1]; 75% RH, open, 7 days): 99.41% | Color and appearance ([1]; 75% RH, open, 14 days): Off-white solid | Crystal form ([1]; 75% RH, open, 14 days): Did not change | Main peak purity ([1]; 75% RH, open, 14 days): 99.30% | Color and appearance ([1]; 75% RH, open, 30 days): Off-white solid | Crystal form ([1]; 75% RH, open, 30 days): Did not change | Main peak purity ([1]; 75% RH, open, 30 days): 99.31% | Color and appearance ([1]; 92.5% RH, open, 7 days): Off-white solid | Crystal form ([1]; 92.5% RH, open, 7 days): Did not change | Main peak purity ([1]; 92.5% RH, open, 7 days): 99.39% | Color and appearance ([1]; 92.5% RH, open, 14 days): Off-white solid | Crystal form ([1]; 92.5% RH, open, 14 days): Did not change | Main peak purity ([1]; 92.5% RH, open, 14 days): 99.42% | Color and appearance ([1]; 92.5% RH, open, 30 days): Off-white solid | Crystal form ([1]; 92.5% RH, open, 30 days): Did not change | Main peak purity ([1]; 92.5% RH, open, 30 days): 99.28% | Color and appearance ([1]; 4500 Lux, open, 7 days): Off-white solid | Crystal form ([1]; 4500 Lux, open, 7 days): Did not change | Main peak purity ([1]; 4500 Lux, open, 7 days): 99.09% | Color and appearance ([1]; 4500 Lux, open, 14 days): Off-white solid | Crystal form ([1]; 4500 Lux, open, 14 days): Did not change | Main peak purity ([1]; 4500 Lux, open, 14 days): 98.94% | Color and appearance ([1]; 4500 Lux, open, 30 days): Off-white solid | Crystal form ([1]; 4500 Lux, open, 30 days): Did not change | Main peak purity ([1]; 4500 Lux, open, 30 days): 98.50% | Crystal form ([2]; 25° C., 60%RH): α | Purity, 1 month ([2]; 25° C., 60%RH): 99.33% | Crystal form ([2]; 40° C., 75%RH): α | Purity, 1 month ([2]; 40° C., 75%RH): 99.24% | Purity, Initial [2]: 99.43% | physical and chemical stability (conclusion) [2]: good physical and chemical stability
Compound: Br.Cn1nccc1Nc1nccc(-c2cc3n(c2)C(=O)N([C@H](CO)c2cccc(Cl)c2)C3)n1 [Hydrobromide in crystal form α]
physical and chemical stability (conclusion) ([1]; 30 days): relatively good physical and chemical stability

Color and appearance ([1]; 40° C., open, 7 days): Off-white solid | Crystal form ([1]; 40° C., open, 7 days): Did not change | Main peak purity ([1]; 40° C., open, 7 days): 99.13% | Color and appearance ([1]; 40° C., open, 14 days): Off-white solid | Crystal form ([1]; 40° C., open, 14 days): Did not change | Main peak purity ([1]; 40° C., open, 14 days): 99.07% | Color and appearance ([1]; 40° C., open, 30 days): Off-white solid | Crystal form ([1]; 40° C., open, 30 days): Did not change | Main peak purity ([1]; 40° C., open, 30 days): 98.96% | Color and appearance ([1]; 60° C., open, 7 days): Off-white solid | Crystal form ([1]; 60° C., open, 7 days): Did not change | Main peak purity ([1]; 60° C., open, 7 days): 98.82% | Color and appearance ([1]; 60° C., open, 14 days): Off-white solid | Crystal form ([1]; 60° C., open, 14 days): Did not change | Main peak purity ([1]; 60° C., open, 14 days): 98.82% | Color and appearance ([1]; 60° C., open, 30 days): Off-white solid | Crystal form ([1]; 60° C., open, 30 days): Did not change | Main peak purity ([1]; 60° C., open, 30 days): 98.88% | Color and appearance ([1]; 75% RH, open, 7 days): Off-white solid | Crystal form ([1]; 75% RH, open, 7 days): Did not change | Main peak purity ([1]; 75% RH, open, 7 days): 99.13% | Color and appearance ([1]; 75% RH, open, 14 days): Off-white solid | Crystal form ([1]; 75% RH, open, 14 days): Did not change | Main peak purity ([1]; 75% RH, open, 14 days): 99.11% | Color and appearance ([1]; 75% RH, open, 30 days): Off-white solid | Crystal form ([1]; 75% RH, open, 30 days): Did not change | Main peak purity ([1]; 75% RH, open, 30 days): 99.11% | Color and appearance ([1]; 92.5% RH, open, 7 days): Off-white solid | Crystal form ([1]; 92.5% RH, open, 7 days): Did not change | Main peak purity ([1]; 92.5% RH, open, 7 days): 99.09% | Color and appearance ([1]; 92.5% RH, open, 14 days): Off-white solid | Crystal form ([1]; 92.5% RH, open, 14 days): Did not change | Main peak purity ([1]; 92.5% RH, open, 14 days): 99.15% | Color and appearance ([1]; 92.5% RH, open, 30 days): Off-white solid | Crystal form ([1]; 92.5% RH, open, 30 days): Did not change | Main peak purity ([1]; 92.5% RH, open, 30 days): 98.93% | Color and appearance ([1]; 4500 Lux, open, 7 days): Off-white solid | Crystal form ([1]; 4500 Lux, open, 7 days): Did not change | Main peak purity ([1]; 4500 Lux, open, 7 days): 98.99% | Color and appearance ([1]; 4500 Lux, open, 14 days): Off-white solid | Crystal form ([1]; 4500 Lux, open, 14 days): Did not change | Main peak purity ([1]; 4500 Lux, open, 14 days): 98.54% | Color and appearance ([1]; 4500 Lux, open, 30 days): Off-white solid | Crystal form ([1]; 4500 Lux, open, 30 days): Did not change | Main peak purity ([1]; 4500 Lux, open, 30 days): 98.28% | Color and appearance ([1]; Initial, 0 days): Off-white solid | Crystal form ([1]; Initial, 0 days): Crystal form β | Main peak purity ([1]; Initial, 0 days): 99.12% | Crystal form ([2]; 25° C., 60%RH): β | Purity, 1 month ([2]; 25° C., 60%RH): 98.99% | Crystal form ([2]; 40° C., 75%RH): β | Purity, 1 month ([2]; 40° C., 75%RH): 99.00% | Purity, Initial [2]: 99.17% | physical and chemical stability (conclusion) [2]: good physical and chemical stability
Compound: Br.Br.Cn1nccc1Nc1nccc(-c2cc3n(c2)C(=O)N([C@H](CO)c2cccc(Cl)c2)C3)n1 [Hydrobromide in crystal form β]
physical and chemical stability (conclusion) ([1]; 30 days): relatively good physical and chemical stability
